Reference: patent US6770451B2, “Screening for enzyme inhibitors” (Discoverx, Inc., priority 2001, dated 2004)

What was measured:
[1] = tested on: STK; experiment: DiscoveRx STK HitHunter Assay; assay type: biochemical
[2] = tested on: STK; experiment: Fluorescent Polarization STK Assay (FP Assay); assay type: biochemical

| SMILES | IC50 [1] [nM] | IC50 [2] [nM] |
| --- | --- | --- |
| COC1C(N(C)CC(=O)O)CC2OC1(C)n1c3ccccc3c3c4c(c5c6ccccc6n2c5c31)C(=O)NC4 (stereo not shown) [STA-CM, N-carboxymethylstaurosporine] | 92 | 220 |
| CN[C@@H]1C[C@H]2O[C@@](C)([C@@H]1OC)n1c3ccccc3c3c4c(c5c6ccccc6n2c5c31)C(=O)NC4 [staurosporine] | 9 | 22 |
